Results published in EP3785697A1, “COSMETIC COMPOSITIONS COMPRISING PIPERLONGUMINE” (Unilever N.V., priority 2019, dated 2021).
≈ marks a conversion by molar mass, not a printed value.

What was measured:
IL-6 = assay: Human immune cell line THP-1 in vitro assay, IL-6 measured by ELISA in supernatant; format: cell-based
Experimental: (§1) In this assay, the concentration of IL-6 (Interleukin-6) and the % cell viability are measured. Widening of therapeutic window is indicated by the concentration of Interleukin-6 (IL-6) as measured on the Human Immune cell Line using the THP-1 invitro assay in pg/ml and the % cell viability of THP-1 cells.
(§2) Cells were differentiated in 24-well plates at the density of 5 x 10^5 cells / well with 100 nM PMA for 72 hours. Cells were then co-treated with E.coli lipopolysaccharides (LPS) and single concentration or a combination of piperlongumine and L-cystine at different doses. After 24 hours, the supernatants were collected for measurement of interleukin (IL)-6 as a pro-inflammatory biomarker using enzyme-linked immunosorbent assay (ELISA).

[1] = 25°C; cited from earlier work
in vitro = conditions: human, oral keratinocytes
Experimental: (§3) HOKs (Passage 4-6) were seeded in 96 well-plates at the density of 2 x 10^4 cells / well overnight. On the experimental day the cells were treated with heat killed P.gingivalis and single concentration or a combination of piperlongumine and L-cystine at different doses. After 24 hours, cell viability was measured with cell counting kit-8.

[2] = system: Human oral keratinocytes (HOK); assay: Human oral keratinocytes (HOK) in vitro assay, cell viability by cell counting kit-8; conditions: Table 3; Piperlongumine 15 µM, HOKs treated with heat killed P.gingivalis, 24 hours; Control 100; 1440 min, 15 µM
Experimental: as §3

[3] = as above; conditions: human, oral keratinocytes, Cell viability (%), Table 3, Piperlongumine 15 µM, HOKs treated with heat killed P.gingivalis, Control 100
Experimental: as §3

[4] = Human immune cell line THP-1 in vitro assay, cell viability; conditions: thp-1 cells, Cell viability (%)
Experimental: as §1, §2

THP-1 cells = conditions: human, 24 h, 100 µM
Experimental: as §1, §2

In the case of `N[C@@H](CSSC[C@H](N)C(=O)O)C(=O)O` [L-cystine], the “Concentration of IL-6” value (IL-6; Table 1, L-cystine 100 µM, co-treated with E.coli LPS, 24 hours, Control 98, LPS alone 2252) is given as 1896 pg/mL, the Solubility in water [1] is given as 0.112 mg/mL (≈ 466 µM) and the viability at 24 h, 50 µM (in vitro) is given as 102%. The viability at 24 h, 100 µM (in vitro) was 109%.

With `COc1cc(/C=C/C(=O)N2CCC=CC2=O)cc(OC)c1OC` [Piperlongumine, 5,6-dihydro-1-[(2E)-1-oxo-3-(3,4,5-trimethoxyphenyl)-2-propenyl]-2(1 H)-pyridinone] the “Concentration of IL-6” value (IL-6; Table 1, Piperlongumine 5 µM, co-treated with E.coli LPS, 24 hours, Control 98, LPS alone 2252) was 103 pg/mL, the “Concentration of IL-6” value (IL-6; Table 1, Piperlongumine 10 µM, co-treated with E.coli LPS, 24 hours, Control 98, LPS alone 2252) was 117 pg/mL and the “Concentration of IL-6” value (IL-6; Table 2, Piperlongumine 10 µM, Control 122, LPS alone 3953) was 91 pg/mL. For the same molecule, the “Cell viability (%)” value [2] was 63.38%, the viability at 24 h, 15 µM [3] was 63.4% and the viability at 24 h, 5 µM ([4]; Table 1, Piperlongumine 5 µM, co-treated with E.coli LPS, 24 hours, Control 100, LPS alone 91) was 100%. The viability at 24 h, 10 µM ([4]; Table 1, Piperlongumine 10 µM, co-treated with E.coli LPS, 24 hours, Control 100, LPS alone 91) was 74% and the viability at 24 h, 10 µM ([4]; Table 2, Piperlongumine 10 µM, Control 100, LPS alone 86) was 39%.

With Vitamin E [reference compound] the “Cell viability (%)” value (THP-1 cells) was 73% and the “Concentration of IL-6” value (IL-6; Table 2, Vitamin E 100 µM, Control 122, LPS alone 3953) was 2998 pg/mL.
